According to patent US11788147B2, “Markers of triple-negative breast cancer and uses thereof” (Vanderbilt University, priority 2011, dated 2023):

Legend:
[1] = system: HCC1806 and MDA-MB-468 xenograft tumors; experiment: Xenograft tumor studies (Example 1), basal-like; type: in vivo, mice; details: cisplatin i.p. 8 mg/kg/wk, approximately 3 weeks, relative to vehicle control; P<0.0001
Method: Xenograft tumor studies. Five-week-old female athymic nude-Foxnlnu mice (Harlan Sprague-Dawley) were injected (s.c.) with either approximately 5×10^6 (CAL-51, HCC1806, MDA-MB-468, and SUM185PE) or approximately 10×10^6 (CAL-148 and SUM159PT) cells suspended in medium (200 μl) into each flank using a 22-gauge needle. The protocols describing the process of xenograft tumor formation in athymic mice were reviewed and approved by the Vanderbilt Institutional Review Board. Once tumors reached a volume of 25-50 mm^3, mice were randomly allocated to treatment or vehicle arms. Treatments included bicalutamide per oral (100 mg/kg/d), cisplatin i.p. (8 mg/kg/wk), or NVP-BEZ235 per oral (50 mg/kg/d) in 1:9 N-methylpyrolidone: PEG300. Tumor diameters were serially measured at the indicated times with digital calipers, and tumor volumes were calculated as width^2×length/2. Data points reflect the means and SEM for 16 tumors per treatment.

[2] = system: heterogeneous TNBC patient population; details: neoadjuvant, single agent; cited from earlier work
[3] = system: LAR TNBC cell lines; experiment: Cell proliferation/viability assay (alamarBlue) and IC50 determination; type: cell-based, human; details: LAR lines, 72 hours
Method: Cell proliferation/viability assays and IC50 determinations. All cell lines and culture conditions used can be found in Supplemental Methods (Table 5). Short tandem repeat (STR) DNA fingerprinting analysis was performed on all TNBC cell lines used in this study (Cell Line Genetics). […] Breast cancer cell lines and HMECs were seeded (3,000-10,000 cells) in quadruplicate wells in 96-well plates. […] Medium was then replaced with either fresh medium (control) or medium containing half-log serial dilutions of the following drugs: 0.3-30 μM olaparib (ChemieTek), 0.3-30 μM veliparib (ChemieTek), 1-100 μM bicalutamide (IPR Pharmaceutical), 0.3-30 μM cisplatin (APP Pharmaceutical), 3-300 nM NVP-BEZ235 (Chemdea), 10-1000 nM 17-DMAG (ChemieTek), and 0.1-10 μM dasatinib (LC Laboratories). Viability was determined from measuring fluorescent intensity after metabolic reduction of alamarBlue in the presence/absence of the drug after 72 hours. Viability assays were performed in triplicate, and replicates were normalized to untreated wells. […] For analysis of cell-line drug assays, data generated from the different cell lines representative of TNBC subtypes were compared using the nonparametric Mann-Whitney U test. All analyses and graphic representations were performed using Prism software (version 4.0c; GraphPad Software), and values are represented as the mean±SEM.

N.N.[Cl][Pt][Cl] [cisplatin]
xenograft tumor growth [1]: significantly growth inhibited | pCR [2]: 21% | IC50 [3]: 15 µM
